Data as given in patent US20070238762A1, “Use of Antagonists of Hepatic Sympathetic Nerve Activity” (DiaMedica Inc., priority 2003, published 2007).

What was measured:
Sprague Dawley rats [1] = assay: Rapid insulin sensitivity test (RIST) following 18 hour fast; format: in vivo, rat; conditions: male rats fasted 18 hours; bolus 600 μg/kg ipv phentolamine; FIG. 4
Protocol: Blockade of HISS release results in HDIR.
Male, Sprague Dawley rats were fed normal rat pellets and then fasted for a 18-hour period (with free access to water) prior to administration of pentobarbital sodium anesthesia and standard RIST methodology surgical preparation as described in Example One.
Following fasting, the animals were administered a bolus dose of 600 μg/kg ipv of phentolamine or a bolus dose of 600 μg/kg ipv of phentolamine and 5 μg/kg ipv of arecoline.

Sprague Dawley rats [2] = assay: Rapid insulin sensitivity test (RIST) following 24 hour fast; format: in vivo, rat; conditions: male rats fasted 24 hours; constant i.v. infusion of phentolamine; FIG. 3
Excerpt: HISS-dependent and HISS-independent insulin action can be most readily quantitated using the rapid insulin sensitivity test (RIST) which is a transient euglycemic clamp in response to a bolus administration of insulin. […] The RIST method uses variable glucose infusion rates to maintain the blood glucose level constant. The amount of glucose required to be administered in order to maintain the glycemic baseline is the index of insulin sensitivity and is referred to as the RIST index. The RIST index produced by this procedure consists of a HISS-dependent component and a HISS-independent component that can be readily differentiated by testing in the control fed state and then repeating the test after blockade of HISS release by any of a number of means including surgical denervation of the liver, blockade of hepatic muscarinic receptors, blockade of hepatic nitric oxide production, or blockade of hepatic cyclooxygenase. […] Blockade of HISS release results in HDIR. […] In order to determine whether HISS played a role in controlling glycogenolysis in response to acute trauma, fully anesthetized, fed, male, Sprague Dawley rats were prepared surgically according to the standard animal preparation used to conduct a rapid insulin sensitivity test (RIST) (Lautt et al., 1998). […] Blood was then withdrawn at a rate of 0.5 ml/min to decrease arterial pressure to 50 mm Hg. […]

Cc1ccc(N(CC2=NCCN2)c2cccc(O)c2)cc1 [phentolamine]
insulin action (RIST) (Sprague Dawley rats [1]): restoration of insulin action
insulin action (RIST) (Sprague Dawley rats [2]): significantly restored toward normal levels
